Read-outs that look alike come from different tables or passages of the source. Blank lines part the entries; values can stand above or below the molecule they belong to.
How the values were obtained:
[1] = Arterial blood sampling with octanol separation of freely available and bound fractions; type: in vivo, dogs; settings: 10 min. after injection; remaining activity albumin bound
Method: Arterial blood sampling. Blood samples (approximately 0.4-0.5 ml) were drawn from an AV shunt on a schedule similar to the scanning schedule for determination of the arterial input functions. […] Each sample was weighed and counted in a well counter soon after withdrawal, and corrections for radioactive decay were applied to recover time-activity curves for the whole-blood and freely-available arterial input functions for use with compartment modeling. […] While this could potentially complicate measurement of the input function for each tracer; however, at 10 min. after injection the octanol-extractable fraction of PTSM in the blood was only ˜1%, with the remaining activity albumin bound.

[2] = for k1^Stress / k2^Stress / k3^Stress: adenosine stress; for k1^Rest: ± SD from fit covariance
Method: Data acquisition. PET scans can be performed using, for example, an Advance™ PET scanner (GE Medical Systems, Waukesha, Wis.) operated in 2D mode, though other PET scanners are contemplated within the scope of this invention. Human subjects, when used, were positioned with arms down and a strap was placed across the chest to immobilize the subject and minimize movement artifacts. Transmission scans (^68Ge rod source) were acquired to position the heart in the field of view (2 min) and for attenuation correction (10 min). […] Scans performed during stress were started at the midpoint of a 6 minute adenosine infusion (0.14 mg kg^−1 min^−1) while vital signs including pulse rate, blood pressure and oxygen saturation were assessed by a physician using standard monitoring equipment.
Dynamic PET data were acquired with a waiting period of about 50-71 min between rest and stress emission scans. Imaging protocols were designed to allow rest and stress components to be added to emulate rapid dual-injection data as further described herein. Rest and stress emission scan data were acquired separately using the following temporal sampling schedule for the first 10 minutes: (12×5 s, 6×10 s, 6×30 s and 5×1 min). For rest scans, this schedule was repeated for another 10 minutes for a total emission scan duration of about 20 minutes. This provided equal duration stress timeframes that could be shifted in time and added to the rest timeframes in order to mimic a rapid dual-injection acquisition while retaining standard single-injection emission scan sequences.
Data processing. According to one embodiment, images were reconstructed using filtered back-projection with a Hanning window cutoff at 1.56 cycles cm^−1. The 128×128 image matrices had 4.3 mm voxels and a slice thickness of 4.25 mm. Data were pre-corrected for attenuation, scatter and randoms prior to reconstruction, but not for radioactive decay because it was included in the kinetic modeling equations. A reference image for each scan was created by summing up timeframes with steady uptake of tracer in the myocardium and used as a guide for reorienting to cardiac short-axis (SA) images. The SA images for all rest and stress timeframes in each subject were co-registered using a template showing the endocardial and epicardial boundaries. Based on visual comparison of an average mid-ventricular slice from each timeframe, the entire SA image volume was shifted manually to align with the template in the plane perpendicular to the SA of the heart. Co-registration was not performed in timeframes where myocardium and blood pool were indistinguishable.
Myocardial regions were selected based on a 17-segment model of the American Society of Nuclear Cardiology (Schelbert et al. 2003), known to those of ordinary skill in the art. On each slice of a reference image, endocardial and epicardial boundaries were drawn and the angle of insertion of the right ventricle into the septum was selected as a landmark for division into sectors. The myocardium was divided into one apical region, four sectors in the apical mid-ventricle, six sectors in the basal mid-ventricle and six sectors in the base of the heart. Blood pool regions were drawn manually in each subject with size restricted to limit partial volume effect and spillover of activity from the myocardium. In each subject, the same regions were applied to all co-registered rest and stress timeframes.

[3] = emulated dual-injection, background subtraction, one typical myocardial region
[4] = emulated dual-injection, combined modeling, one typical myocardial region
[5] = separate single-injection, one typical myocardial region

SMILES: CNC(=S)NN=CC(C)=NNC(=S)NC.[Cu] [PTSM, copper-pyruvaldehyde-bis[N4-methylthiosemicarbazone]]
octanol-extractable fraction in the blood [1]: roughly 1%

k1^Stress [2, 3]: 3.50 ± 0.32 mL/min/g | k2^Stress [2, 3]: 0.80 ± 0.17 | k3^Stress [2, 3]: 0.24 ± 0.04 | k1^Stress [2, 4]: 3.44 ± 0.32 mL/min/g | k2^Stress [2, 4]: 0.79 ± 0.17 | k3^Stress [2, 4]: 0.24 ± 0.04 | k1^Stress [2, 5]: 3.33 ± 0.27 mL/min/g | k2^Stress [2, 5]: 0.69 ± 0.12 | k3^Stress [2, 5]: 0.20 ± 0.03 | k1^Rest ([2]; emulated dual-injection data, background subtraction, one typical myocardial region): 0.92 ± 0.05 mL/min/g | k1^Rest ([2]; emulated dual-injection data, combined modeling, 20 min, one typical myocardial region): 0.93 ± 0.05 mL/min/g | k2^Rest [2, 3]: 0.13 ± 0.04 | k3^Rest [2, 3]: 0.08 ± 0.07 | k4^Rest [2, 3]: 0.47 ± 0.02 | k2^Rest [2, 4]: 0.14 ± 0.04 | k3^Rest [2, 4]: 0.11 ± 0.06 | k4^Rest [2, 4]: 0.47 ± 0.02 | k1^Rest ([2]; separate single-injection, first 10 min of data, one typical myocardial region (FIG. 5)): 0.92 ± 0.05 mL/min/g | k2^Rest [2, 5]: 0.13 ± 0.04 | k3^Rest [2, 5]: 0.08 ± 0.07 | k4^Rest [2, 5]: 0.47 ± 0.02
SMILES: [13NH3] [^13N-ammonia]

Source: US7848557B2, “Rapid multi-tracer PET imaging systems and methods” (priority 2007, dated 2010)
